Source: article PMC10224201, “Characterization of Non-Specific Uptake and Retention Mechanisms of [^177Lu]Lu-PSMA-617 in the Salivary Glands” (Pharmaceuticals, 2023)

Target: T1, PSMA (PC3-PIP cells) (Homo sapiens, UniProt Q04609)
T1 construct: gene FOLH1; full length, on intact PSMA-positive PC3-PIP prostate cancer cells (PC3-Flu as PSMA-negative control)
Assay: competition with […]Lu-PSMA-617 on cells, gamma counting
Format: cell-based
Conditions: read-out: % of control binding at 9000 μM

T1 sequence (Q04609 whole entry): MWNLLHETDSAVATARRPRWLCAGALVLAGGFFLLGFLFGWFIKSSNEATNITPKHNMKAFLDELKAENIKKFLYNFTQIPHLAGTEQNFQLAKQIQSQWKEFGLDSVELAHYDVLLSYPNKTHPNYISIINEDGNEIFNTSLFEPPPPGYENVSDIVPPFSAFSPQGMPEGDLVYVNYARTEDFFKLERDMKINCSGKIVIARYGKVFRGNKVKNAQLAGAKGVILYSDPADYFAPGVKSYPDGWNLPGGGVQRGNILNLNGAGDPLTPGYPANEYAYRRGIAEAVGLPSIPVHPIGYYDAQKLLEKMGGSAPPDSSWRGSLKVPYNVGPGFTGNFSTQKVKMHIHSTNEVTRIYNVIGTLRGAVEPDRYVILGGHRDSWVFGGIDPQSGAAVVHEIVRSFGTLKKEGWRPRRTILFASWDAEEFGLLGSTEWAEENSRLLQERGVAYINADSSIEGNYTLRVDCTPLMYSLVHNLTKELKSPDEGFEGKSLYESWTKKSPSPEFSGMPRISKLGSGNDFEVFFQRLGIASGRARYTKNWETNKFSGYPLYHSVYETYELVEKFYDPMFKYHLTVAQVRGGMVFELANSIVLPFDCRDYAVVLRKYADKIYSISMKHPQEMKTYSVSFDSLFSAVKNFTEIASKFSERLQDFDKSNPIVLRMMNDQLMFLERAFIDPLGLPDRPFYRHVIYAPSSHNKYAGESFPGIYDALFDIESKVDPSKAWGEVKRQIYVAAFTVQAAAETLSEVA

remaining activity at 9000 µM: 24.9 ± 3.64%
Compound: N[C@@H](CCC(=O)O)C(=O)O [monosodium glutamate]
